Results as given in patent US20260317277A1, “ARYLALKYLAMINE COMPOUND, AND PREPARATION METHOD THEREFOR AND USE THEREOF” (RENHE YIKANG GROUP CO., LTD., priority 2024, published 2026).

Tests used:
[1] = Pharmacokinetic study in SD rats; type: in vivo, Male Sprague-Dawley (SD) rats; conditions: male SD rats, oral gavage; Evocalcet = 100
Method: Animal Information: Male Sprague-Dawley (SD) rats, aged 7-8 weeks, were used. Each group consisted of 3-5 rats.
Dosing Information: The rats were fasted for more than 12 hours prior to administration. A single dose was administered via oral gavage.
Blood Sampling Time Points: Blood samples were collected from the tail vein before administration and at 0.25, 0.5, 1, 2, 4, 6, 8, and 24 hours post-administration. A volume of 100 μL of blood was collected at each time point.
Sample Processing and Storage: The blood samples were transferred into 1.5 mL microcentrifuge tubes, with 50 μL per tube (two tubes per sample). Centrifugation was completed within 2 hours. Whole blood samples were kept on ice prior to centrifugation. Centrifugation was performed at 4000 rpm, 2-8° C., for 10 minutes. After collecting the supernatant, it was stored at −80° C. or below if not analyzed immediately.
Column: An InfinityLab Poroshell 120 SB-C18 column (2.1×100 mm, 2.7 μm) was used. Column Temperature: The temperature was maintained at 30° C. Flow Rate: The flow rate was set at 0.3 mL/min. Run Time: The total run time was 9.5 minutes. Post-run Time: A post-run time of 2 minutes was applied. Injection Volume: An injection volume of 2 μL was used. Mobile Phase: A mixture of methanol and 0.1% formic acid was employed as the mobile phase. Gradient Elution: Gradient elution was performed according to the table below.
b) the Mass Spectrometry Conditions were Set as Follows: […]
Preparation of Standard Solutions: Appropriate volumes of Evocalcet, Compound 2, and Compound 3 stock solutions were precisely measured and diluted with 50% methanol to prepare standard solutions with concentrations of 80, 200, 1000, 5000, 10000, 20000, and 40000 ng/mL.
Preparation of Internal Standard (Clenbuterol Hydrochloride) Solution: 10 mg of clenbuterol hydrochloride was accurately weighed and transferred into a 10 mL volumetric flask. […] An appropriate volume of the stock solution was precisely measured and diluted with methanol to prepare a 2000 ng/mL internal standard working solution. […]

[2] = Review Report on Evocalcet Tablets 1 mg and 2 mg, March 2018; cited from earlier work

Row | Compound | Relative bioavailability (%) [1] [%] | adverse reactions [2]
1 | C[C@@H](N[C@H]1CCN(c2ccc(CC(=O)O)cc2F)C1)c1cccc2ccccc12 [Compound 2, 2-(3-fluoro-4-((S)-3-(((R)-1-(naphthalen-1-yl)ethyl)amino)pyrrolidin-1-yl)phenyl)acetic Acid] | 136 | 
2 | Cc1cc(CC(=O)O)ccc1N1CC[C@H](N[C@H](C)c2cccc3ccccc23)C1 [Compound 3, 2-(3-methyl-4-((S)-3-(((R)-1-(naphthalen-1-yl)ethyl)amino)pyrrolidin-1-yl)phenyl)acetic Acid] | 144 | 
3 | C[C@@H](N[C@H]1CCN(c2ccc(CC(=O)O)cc2)C1)c1cccc2ccccc12 [Evocalcet] | 100 | hypocalcemia, vomiting, nausea, chills, QT prolongation, mood disturbances, cardiac arrhythmia, hypotension, and cramps
